US8268856B2, “Method to use compositions having antidepressant anxiolytic and other neurological activity and compositions of matter” (priority 2007, dated 2012)
“Also recorded” adds a separate entry of the source.

How the values were obtained:
white-leghorn cockerels = assay: Chick anxiety-depression continuum model (SCADM); format: in vivo; conditions: 30 mg/kg dose
Description: 5,6-Dibromo-N,N-dimethyltryptamine (1) was evaluated in the FST and chicken anxiety-depression model. […] In the chick anxiety-depression continuum model, socially raised chicks are separated from conspecifics during a two hour test session. […] Previous studies have shown the first 5 min block to model the anxiety phase whereby a diverse set of anxiolytic compounds reduce distress vocalizations and that the last 90 min of the test session models the depressive phase of the model whereby antidepressants increase distress vocalizations (i.e., block the onset of behavioral despair). Sufka, K. J. et al.; 17 C. M. Behav.
Sulfka Chick Anxiety-Depression Model (SCADM) Test. Group housed white-leghorn cockerels (Cal-Maine W36) were tested at ages 5-6 days post-hatch. […] Vocalizations were recorded in 5-min blocks over a 120 min test period. […]
(§1) For the FST, immobility times of the three independent rates were averaged for each mouse and data were analyzed using one way analysis of variance (ANOVA) followed by Bonferroni Multiple comparison posthoc tests to determine statistical differences from the corresponding vehicle control. Chick distress vocalization data were analyzed by two-way repeated measures ANOVA, one-way ANOVA and simple effects analyses with post-hoc comparisons conducted using Fisher's LSD test. p-Values less than 0.05 were considered statistically significant.

5-HT6 = 5-HT6 (UniProt P50406); assay: In vitro receptor binding assay, 5-HT6; set-up: species or system human or rodent; conditions: read-out: Ki 5-HT6; preliminary data
Description: (§2) Evaluation of binding affinity of isolated compounds to serotonin receptors. In vitro testing of isolated compounds was completed using a small panel of receptor binding assays and then validated in a comprehensive panel by the NIMH Psychoactive Drug Screening Program. Pharmacological and functional screening of isolated molecules was performed on cloned human or rodent CNS receptors, channels, and transporters. Hu, J-F., et al. New Antiinfective and Human 5-HT2 Receptor Binding Natural and Semisynthetic Compounds from the Jamaican Sponge Smenospongia aurea. 65 Jour. of Nat. Prod. 476-80 (2002).

5-HT2B receptors = 5-HT2B receptors (UniProt P41595); assay: In vitro receptor binding assay, 5-HT2B; set-up: species or system human or rodent; conditions: read-out: Ki 5-HT2B; preliminary data
Description: as §2

male Swiss Webster mice [1] = assay: Porsolt forced swim test (FST); format: in vivo, mouse; conditions: male Swiss Webster mice, IP, immobility during last 4 min of 6 min swim, versus vehicle
Description: (§3) Locomotor Activity and the FST. To evaluate the isolated compounds for antidepressant-like activity, male Swiss Webster mice (Harlan, Indianapolis, Ind.) (25-30 g weight) were used. Animals were housed in groups of five with a 12 h light/12 h dark cycle. Food and water were provided at libitum. All procedures involving animals were performed as approved by the Institutional Animal Care and Use Committee of the University of Mississippi. Animals were randomly divided into groups (n=6-10/group). Each group was injected IP with either the compound (1-20 mg/kg), desipramine (20 mg/kg), or vehicle (saline, 10% ethanol or 10% ethanol/1% DMSO). Following injection, locomotor activity was monitored using an automated activity monitoring system (San Diego Instruments, San Diego, Calif.). Each mouse was placed in a Plexiglas enclosure and locomotor activity was recorded as the number of photobeam interruptions for 30 min after drug injection. The activity for the last ten min was quantified and analyzed. Immediately at the end of the locomotor session, individual mice were subjected to the FST. The mice were individually placed in a clear plastic cylinder (23 cm high, 10 cm internal diameter) filled with deionized water (8 cm high) at 25° C. The mice were recorded with a video camera (positioned at about 30 cm above the cylinder) for a total of 6 min. The total period of immobility during the last 4 min was timed by three independent observers. The mean immobility time was then calculated. A mouse was judged to be immobile when it remained afloat, making only minimal movements to keep its head above water.
as §1
(§4) Porsolt R D, et al. Behavioral Despair In Mice: A Primary Screening Test for Antidepressants, 229 Arch. Int. Pharmacodyn. 327-36 (1977). […] In order to control for false positives, as has been previously observed with psychostimulants, Cryan, J., et al. Assessing Substrates Underlying The Behavioral Effects Of Antidepressants Using The Modified Rat Forced Swimming Test. 29 Neurosci Biobehav Rev. 547-69 (2005) locomotor activity of the animals was monitored using an automated photobeam activity monitoring system. Lucki. I. The Forced Swimming Test As A Model For Core And Component Behavioral Effects Of Antidepressant Drugs. 8 Behav. Pharmacol. 522-32 (1997).

Male DBA2/J mice = assay: Mouse tail suspension test (TST); format: in vivo; conditions: i.p., versus vehicle
Excerpt: Based on the data collected from the FST, the antidepressant action of aaptamine. 5,6-dibromo-N,N-dimethyltryptamine, and 3-bromotyramine was examined in the mouse tail suspension test (TST), another model highly predictive of antidepressant action. Similar to the FST, this test depends on the depressive behavior elicited by the animals when placed in an inescapable situation, in this case suspending the animal by its tail. Male DBA2/J mice were used for this test.
In fact, higher doses seem to increase immobility time (FIG. 9C). […] However, such effect was only evident at the 40 mg/kg dose (compared to 10 and 20 mg/kg dose in the FST) (FIG. 9D).

5HT2A receptor = 5HT2A receptor (Homo sapiens, UniProt P28223); assay: In vitro receptor binding assay, 5-HT2A; set-up: species or system human or rodent; conditions: read-out: Ki 5-HT2A; preliminary data
Sequence of 5HT2A receptor (P28223 whole entry): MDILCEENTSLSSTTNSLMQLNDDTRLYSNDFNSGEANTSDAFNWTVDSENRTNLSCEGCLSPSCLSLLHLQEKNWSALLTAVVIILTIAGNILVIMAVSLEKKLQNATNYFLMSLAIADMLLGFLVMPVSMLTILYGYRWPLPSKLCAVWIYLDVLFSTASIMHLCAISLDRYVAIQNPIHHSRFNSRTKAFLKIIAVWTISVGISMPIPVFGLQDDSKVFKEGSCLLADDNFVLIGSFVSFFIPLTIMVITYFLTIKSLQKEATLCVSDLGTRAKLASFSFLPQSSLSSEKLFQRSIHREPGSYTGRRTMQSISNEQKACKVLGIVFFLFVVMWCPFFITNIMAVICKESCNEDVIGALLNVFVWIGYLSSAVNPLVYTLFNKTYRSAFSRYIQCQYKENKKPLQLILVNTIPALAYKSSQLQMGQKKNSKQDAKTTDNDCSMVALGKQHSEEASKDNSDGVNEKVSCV
Description: as §2

5-HT2C = target: T1, 5-HT2C (UniProt P28335); assay: In vitro receptor binding assay, 5-HT2C; set-up: species or system human or rodent; conditions: read-out: Ki 5-HT2C; preliminary data
T1 sequence (P28335 1-458): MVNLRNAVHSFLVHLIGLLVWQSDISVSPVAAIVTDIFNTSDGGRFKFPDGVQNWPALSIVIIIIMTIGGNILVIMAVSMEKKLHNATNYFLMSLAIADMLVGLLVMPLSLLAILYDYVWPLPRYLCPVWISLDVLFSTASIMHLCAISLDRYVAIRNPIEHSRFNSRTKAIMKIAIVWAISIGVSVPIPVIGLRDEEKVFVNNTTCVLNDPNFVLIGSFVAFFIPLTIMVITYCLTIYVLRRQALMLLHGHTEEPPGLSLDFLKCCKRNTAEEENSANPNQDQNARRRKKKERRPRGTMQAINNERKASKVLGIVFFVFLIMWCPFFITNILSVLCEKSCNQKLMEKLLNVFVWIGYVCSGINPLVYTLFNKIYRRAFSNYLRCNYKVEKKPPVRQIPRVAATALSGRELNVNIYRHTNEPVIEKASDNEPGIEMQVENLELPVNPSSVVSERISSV
Description: as §2

male Swiss Webster mice [2] = assay: Locomotor activity test, Swiss Webster mice; format: in vivo, mouse; conditions: IP, photobeam interruptions, versus vehicle
Description: as §3
(§5) Effect of select compounds on locomotor activity. Since reductions in immobility time is the primary criterion to assess antidepressant like activity in both the FST and TST, it is crucial to confirm that the effects observed in both tests are not attributed to specific stimulant action of the tested compounds, which would be reflected as enhancement of the locomotor activity. Accordingly, the effect of tested compounds on locomotor activity was evaluated using an automated activity monitoring system.

serotonin receptors = assay: Affinity to serotonin receptors (receptor binding panel); set-up: species or system human or rodent
Description: as §2, §4

DBA2/J mice = assay: Locomotor activity test, DBA2/J mice; format: in vivo, mouse; conditions: versus vehicle
Description: as §5
However, Tukey's post-hoc tests confirmed that there were no statistical differences between the vehicle controls, or compounds from their respective vehicle controls (FIG. 10A). […] In DBA2/J mice, the pattern of responding in the locomotor studies was similar to that observed in the Swiss Webster mice (FIG. 10B). […] It is thus evident that the drug/dose combinations that produced antidepressant-like effects in both the FST and TST were not associated with confounding stimulant effects effect of select compounds in chick anxiety/depression model: […]

HIV-1 = assay: Activity against HIV-1
HCV = assay: Activity against HCV
[3] = system: Mycobacterium tuberculosis; assay: Activity against Mycobacterium tuberculosis

Structure (SMILES)	separation distress vocalizations, depression phase (white-leghorn cockerels; 30-120 min of test session)	separation distress vocalizations, anxiety phase (white-leghorn cockerels; first 5 min of test session)	Ki (5-HT6)	Ki (5-HT2B receptors)	antidepressant-like activity / effect on immobility time in FST (male Swiss Webster mice [1])	antidepressant-like activity / effect on immobility time in FST (male Swiss Webster mice [1]; listed as 5,6-Dibromo-N,N-dimethyltryptamine)	antidepressant-like action / immobility in tail suspension test (Male DBA2/J mice)	Ki (5HT2A receptor)	Ki (5-HT2C)	effect on locomotor activity (male Swiss Webster mice [2])	affinities to serotonin receptors (serotonin receptors)	effect on locomotor activity (DBA2/J mice)	activity against HIV-1 (HIV-1)	activity against HCV (HCV)	activity against Mycobacterium tuberculosis [3]
CN(C)CCc1c[nH]c2cc(Br)c(Br)cc12 [5,6-dibromo-N,N-dimethyltryptamine]	elevating separation distress vocalizations in the final 30 min of the depression phase	attenuating separation distress vocalizations in the anxiety phase	48 nM	11 nM	significant antidepressant-like action at only the 20 mg/kg dose	significant antidepressant-like activity; also recorded: significantly reduced the immobility time only at the 20 mg/kg dose	strong antidepressant-like action at the 5 mg/kg dose only	243 nM	187 nM	no statistically significant difference; also recorded: nonsignificant trend toward decreasing locomotor activity	moderate affinities	–	–	–	–
NCCc1ccc(O)c(Br)c1 [216/218, 2-(3′-bromo-4′hydroxyphenol)-ethanamine]	–	–	–	–	dose dependent reduction in immobility	–	significant antidepressant action	–	–	did not alter the locomotor activity	moderate affinities	did not alter the locomotor activity	–	–	–
Cc1nccc2c1C(C)(C)Nc1cc(Br)ccc1-2 [Veranamine, 8-bromo-4,5,5-trimethyl-5,6-dihydrobenzo[c][2,7]naphthyridine]	–	–	–	–	potent antidepressant activity at the dose of 20 mg/kg	–	–	–	–	not the consequence of its stimulant activity	moderate affinities	–	not active	not active	not active
